Test results from ChEMBL document CHEMBL5678818, “Discovery of potent SOS1 inhibitors that block RAS activation via disruption of the RAS-SOS1 interaction” (Proc Natl Acad Sci U S A, 2019).

Assays:
[1] = target: Casein kinase I isoform delta (Homo sapiens) (UniProt P48730); assay: Inhibition of CSNK1D (unknown origin) assessed as residual activity at 1000 nM by KINOMEscan analysis relative to control
[2] = target: T1, Serine/threonine-protein kinase 17A (Homo sapiens) (UniProt Q9UEE5); assay: Inhibition of DRAK1 (unknown origin) assessed as residual activity at 1000 nM by KINOMEscan analysis relative to control
T1 sequence (whole entry): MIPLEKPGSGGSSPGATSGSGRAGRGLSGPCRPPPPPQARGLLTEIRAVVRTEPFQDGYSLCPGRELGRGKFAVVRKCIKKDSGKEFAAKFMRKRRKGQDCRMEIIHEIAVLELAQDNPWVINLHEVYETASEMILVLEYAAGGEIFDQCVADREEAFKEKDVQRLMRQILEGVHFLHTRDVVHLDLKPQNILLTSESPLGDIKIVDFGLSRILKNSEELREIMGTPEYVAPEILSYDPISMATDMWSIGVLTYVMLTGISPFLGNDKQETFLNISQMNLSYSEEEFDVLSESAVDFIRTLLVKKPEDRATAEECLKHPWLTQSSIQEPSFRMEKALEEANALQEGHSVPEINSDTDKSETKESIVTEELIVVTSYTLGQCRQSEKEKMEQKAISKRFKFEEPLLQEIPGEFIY

[3] = target: Dual specificity tyrosine-phosphorylation-regulated kinase 1A (Homo sapiens) (UniProt Q13627); assay: Inhibition of DYRK1A (unknown origin) assessed as residual activity at 1000 nM by KINOMEscan analysis relative to control
[4] = target: T2, Ephrin type-A receptor 3 (Homo sapiens) (UniProt P29320); assay: Inhibition of EPHA3 (unknown origin) assessed as residual activity at 1000 nM by KINOMEscan analysis relative to control
T2 sequence (whole entry): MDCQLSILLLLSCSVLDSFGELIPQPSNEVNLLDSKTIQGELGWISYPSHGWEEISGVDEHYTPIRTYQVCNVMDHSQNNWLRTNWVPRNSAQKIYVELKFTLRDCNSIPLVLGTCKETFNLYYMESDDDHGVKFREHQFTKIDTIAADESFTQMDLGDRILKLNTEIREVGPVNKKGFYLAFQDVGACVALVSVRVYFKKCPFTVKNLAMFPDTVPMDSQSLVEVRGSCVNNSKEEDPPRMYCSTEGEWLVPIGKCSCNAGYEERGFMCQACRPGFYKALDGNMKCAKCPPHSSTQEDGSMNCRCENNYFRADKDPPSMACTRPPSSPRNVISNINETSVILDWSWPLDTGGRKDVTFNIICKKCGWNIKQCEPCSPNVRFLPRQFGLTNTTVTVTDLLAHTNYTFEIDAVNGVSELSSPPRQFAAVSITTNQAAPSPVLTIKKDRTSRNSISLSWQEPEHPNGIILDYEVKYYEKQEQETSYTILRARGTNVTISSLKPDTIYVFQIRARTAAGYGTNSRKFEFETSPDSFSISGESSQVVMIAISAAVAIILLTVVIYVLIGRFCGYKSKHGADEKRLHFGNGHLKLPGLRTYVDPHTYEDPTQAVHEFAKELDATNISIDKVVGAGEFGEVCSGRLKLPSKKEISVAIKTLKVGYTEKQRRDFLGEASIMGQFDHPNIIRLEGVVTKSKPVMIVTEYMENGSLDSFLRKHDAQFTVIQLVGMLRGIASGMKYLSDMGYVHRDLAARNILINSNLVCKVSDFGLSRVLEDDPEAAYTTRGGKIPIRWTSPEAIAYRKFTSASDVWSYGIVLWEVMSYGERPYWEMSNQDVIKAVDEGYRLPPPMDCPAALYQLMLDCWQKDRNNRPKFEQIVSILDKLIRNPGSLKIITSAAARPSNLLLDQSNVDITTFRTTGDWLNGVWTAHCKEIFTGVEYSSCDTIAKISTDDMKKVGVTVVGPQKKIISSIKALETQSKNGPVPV

[5] = target: Mitogen-activated protein kinase 7 (Homo sapiens) (UniProt Q13164); assay: Inhibition of ERK5 (unknown origin) assessed as residual activity at 1000 nM by KINOMEscan analysis relative to control
Chain of Mitogen-activated protein kinase 7 (Homo sapiens) (Q13164 2-816 limits assumed): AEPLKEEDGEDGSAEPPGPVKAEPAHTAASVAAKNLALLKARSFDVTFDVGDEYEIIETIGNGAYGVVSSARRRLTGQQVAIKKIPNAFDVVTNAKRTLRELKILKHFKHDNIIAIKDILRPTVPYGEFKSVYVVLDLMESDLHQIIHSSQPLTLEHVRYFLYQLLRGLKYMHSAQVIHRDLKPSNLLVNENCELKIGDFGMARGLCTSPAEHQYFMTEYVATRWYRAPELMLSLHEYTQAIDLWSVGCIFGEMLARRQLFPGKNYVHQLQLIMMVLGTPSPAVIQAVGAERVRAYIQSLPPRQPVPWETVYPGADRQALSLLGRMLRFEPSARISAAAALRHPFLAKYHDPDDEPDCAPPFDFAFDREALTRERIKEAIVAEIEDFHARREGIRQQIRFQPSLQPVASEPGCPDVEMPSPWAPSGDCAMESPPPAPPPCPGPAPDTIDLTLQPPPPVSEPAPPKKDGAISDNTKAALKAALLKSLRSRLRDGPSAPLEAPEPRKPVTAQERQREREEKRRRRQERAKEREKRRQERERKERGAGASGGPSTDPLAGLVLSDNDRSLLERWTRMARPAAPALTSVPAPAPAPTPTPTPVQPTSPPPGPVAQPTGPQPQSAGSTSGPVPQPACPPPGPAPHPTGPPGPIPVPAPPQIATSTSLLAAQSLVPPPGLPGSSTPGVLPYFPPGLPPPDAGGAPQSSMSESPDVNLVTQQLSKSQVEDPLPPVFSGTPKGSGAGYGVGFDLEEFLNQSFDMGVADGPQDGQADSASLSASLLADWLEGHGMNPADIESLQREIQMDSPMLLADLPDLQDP

[6] = target: Glycogen synthase kinase-3 alpha (Homo sapiens) (UniProt P49840); assay: Inhibition of GSK3A (unknown origin) assessed as residual activity at 1000 nM by KINOMEscan analysis relative to control
Chain of Glycogen synthase kinase-3 alpha (Homo sapiens) (P49840 2-483 limits assumed): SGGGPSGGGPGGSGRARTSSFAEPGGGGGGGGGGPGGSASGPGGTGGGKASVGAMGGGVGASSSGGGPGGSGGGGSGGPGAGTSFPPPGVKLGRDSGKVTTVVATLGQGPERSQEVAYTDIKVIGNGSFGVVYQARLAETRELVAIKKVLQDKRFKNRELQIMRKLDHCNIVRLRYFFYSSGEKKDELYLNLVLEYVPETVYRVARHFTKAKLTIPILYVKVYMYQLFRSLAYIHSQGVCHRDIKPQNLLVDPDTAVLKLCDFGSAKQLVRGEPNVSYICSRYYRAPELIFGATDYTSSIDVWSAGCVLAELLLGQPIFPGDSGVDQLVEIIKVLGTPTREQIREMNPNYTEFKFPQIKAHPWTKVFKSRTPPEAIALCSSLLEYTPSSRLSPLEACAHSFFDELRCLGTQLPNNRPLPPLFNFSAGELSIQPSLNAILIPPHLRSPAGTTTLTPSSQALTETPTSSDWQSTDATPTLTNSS

[7] = target: T3, Inhibitor of nuclear factor kappa-B kinase subunit alpha (Homo sapiens) (UniProt O15111); assay: Inhibition of IKK-alpha (unknown origin) assessed as residual activity at 1000 nM by KINOMEscan analysis relative to control
T3 sequence (whole entry): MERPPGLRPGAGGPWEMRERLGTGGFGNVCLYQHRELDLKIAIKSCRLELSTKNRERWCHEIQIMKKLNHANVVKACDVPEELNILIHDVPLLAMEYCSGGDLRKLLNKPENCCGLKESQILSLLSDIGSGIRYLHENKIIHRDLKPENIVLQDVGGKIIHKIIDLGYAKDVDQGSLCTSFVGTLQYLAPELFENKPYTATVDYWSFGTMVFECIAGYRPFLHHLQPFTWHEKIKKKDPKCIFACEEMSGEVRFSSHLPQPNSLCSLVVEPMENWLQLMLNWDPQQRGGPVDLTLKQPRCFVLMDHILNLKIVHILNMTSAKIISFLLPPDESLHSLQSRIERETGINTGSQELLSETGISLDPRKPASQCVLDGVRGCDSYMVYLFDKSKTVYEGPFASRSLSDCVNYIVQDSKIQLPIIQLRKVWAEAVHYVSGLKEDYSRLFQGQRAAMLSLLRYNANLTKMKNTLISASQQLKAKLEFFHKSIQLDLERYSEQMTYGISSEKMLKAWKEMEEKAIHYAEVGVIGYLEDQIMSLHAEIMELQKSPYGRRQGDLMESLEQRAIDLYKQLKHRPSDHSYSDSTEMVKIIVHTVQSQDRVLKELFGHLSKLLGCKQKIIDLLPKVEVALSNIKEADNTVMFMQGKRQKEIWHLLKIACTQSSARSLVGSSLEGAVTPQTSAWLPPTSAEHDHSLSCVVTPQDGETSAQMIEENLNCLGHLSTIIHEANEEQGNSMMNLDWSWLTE

[8] = target: MAP/microtubule affinity-regulating kinase 3 (Homo sapiens) (UniProt P27448); assay: Inhibition of MARK3 (unknown origin) assessed as residual activity at 1000 nM by KINOMEscan analysis relative to control
Chain of MAP/microtubule affinity-regulating kinase 3 (Homo sapiens) (P27448 whole entry, looked up): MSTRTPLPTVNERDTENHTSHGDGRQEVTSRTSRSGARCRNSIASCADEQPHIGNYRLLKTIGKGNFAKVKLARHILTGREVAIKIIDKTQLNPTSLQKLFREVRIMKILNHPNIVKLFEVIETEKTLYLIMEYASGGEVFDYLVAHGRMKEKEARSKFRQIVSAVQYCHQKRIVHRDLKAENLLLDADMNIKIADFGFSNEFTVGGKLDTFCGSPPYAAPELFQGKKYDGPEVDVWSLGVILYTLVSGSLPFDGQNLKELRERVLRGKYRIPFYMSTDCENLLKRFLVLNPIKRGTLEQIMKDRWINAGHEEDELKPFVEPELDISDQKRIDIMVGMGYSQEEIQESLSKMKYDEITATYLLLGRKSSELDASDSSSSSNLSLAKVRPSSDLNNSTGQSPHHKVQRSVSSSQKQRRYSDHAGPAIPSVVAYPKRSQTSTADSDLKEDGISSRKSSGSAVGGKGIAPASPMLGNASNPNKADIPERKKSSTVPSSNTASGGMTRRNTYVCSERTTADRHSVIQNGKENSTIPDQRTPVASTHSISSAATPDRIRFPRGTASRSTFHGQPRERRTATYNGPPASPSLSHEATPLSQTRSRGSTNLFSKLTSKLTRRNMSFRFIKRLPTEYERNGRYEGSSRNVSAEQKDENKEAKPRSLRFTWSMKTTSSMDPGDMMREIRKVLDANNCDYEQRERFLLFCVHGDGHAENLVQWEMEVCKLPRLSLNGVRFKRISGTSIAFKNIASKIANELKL

[9] = target: Maternal embryonic leucine zipper kinase (Homo sapiens) (UniProt Q14680); assay: Inhibition of MELK (unknown origin) assessed as residual activity at 1000 nM by KINOMEscan analysis relative to control
Chain of Maternal embryonic leucine zipper kinase (Homo sapiens) (Q14680 whole entry, looked up): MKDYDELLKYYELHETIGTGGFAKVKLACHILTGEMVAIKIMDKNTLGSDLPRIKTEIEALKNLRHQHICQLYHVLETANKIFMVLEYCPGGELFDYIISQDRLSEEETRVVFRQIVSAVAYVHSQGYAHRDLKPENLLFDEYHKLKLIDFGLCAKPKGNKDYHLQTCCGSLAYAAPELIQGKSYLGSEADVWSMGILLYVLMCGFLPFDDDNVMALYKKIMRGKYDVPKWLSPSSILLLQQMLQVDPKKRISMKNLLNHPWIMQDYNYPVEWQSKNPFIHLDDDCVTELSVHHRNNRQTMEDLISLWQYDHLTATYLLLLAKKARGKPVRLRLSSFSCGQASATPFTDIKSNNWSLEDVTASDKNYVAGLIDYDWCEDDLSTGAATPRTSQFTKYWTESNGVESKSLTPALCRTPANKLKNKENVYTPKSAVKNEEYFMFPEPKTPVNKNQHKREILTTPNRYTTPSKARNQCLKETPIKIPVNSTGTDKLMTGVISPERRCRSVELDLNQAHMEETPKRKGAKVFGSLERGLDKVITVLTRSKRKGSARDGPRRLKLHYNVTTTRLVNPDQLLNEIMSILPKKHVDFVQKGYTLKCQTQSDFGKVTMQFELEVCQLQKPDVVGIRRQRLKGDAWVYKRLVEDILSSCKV

[10] = target: Serine/threonine-protein kinase N2 (Homo sapiens) (UniProt Q16513); assay: Inhibition of PKN2 (unknown origin) assessed as residual activity at 1000 nM by KINOMEscan analysis relative to control
Chain of Serine/threonine-protein kinase N2 (Homo sapiens) (Q16513 whole entry, looked up): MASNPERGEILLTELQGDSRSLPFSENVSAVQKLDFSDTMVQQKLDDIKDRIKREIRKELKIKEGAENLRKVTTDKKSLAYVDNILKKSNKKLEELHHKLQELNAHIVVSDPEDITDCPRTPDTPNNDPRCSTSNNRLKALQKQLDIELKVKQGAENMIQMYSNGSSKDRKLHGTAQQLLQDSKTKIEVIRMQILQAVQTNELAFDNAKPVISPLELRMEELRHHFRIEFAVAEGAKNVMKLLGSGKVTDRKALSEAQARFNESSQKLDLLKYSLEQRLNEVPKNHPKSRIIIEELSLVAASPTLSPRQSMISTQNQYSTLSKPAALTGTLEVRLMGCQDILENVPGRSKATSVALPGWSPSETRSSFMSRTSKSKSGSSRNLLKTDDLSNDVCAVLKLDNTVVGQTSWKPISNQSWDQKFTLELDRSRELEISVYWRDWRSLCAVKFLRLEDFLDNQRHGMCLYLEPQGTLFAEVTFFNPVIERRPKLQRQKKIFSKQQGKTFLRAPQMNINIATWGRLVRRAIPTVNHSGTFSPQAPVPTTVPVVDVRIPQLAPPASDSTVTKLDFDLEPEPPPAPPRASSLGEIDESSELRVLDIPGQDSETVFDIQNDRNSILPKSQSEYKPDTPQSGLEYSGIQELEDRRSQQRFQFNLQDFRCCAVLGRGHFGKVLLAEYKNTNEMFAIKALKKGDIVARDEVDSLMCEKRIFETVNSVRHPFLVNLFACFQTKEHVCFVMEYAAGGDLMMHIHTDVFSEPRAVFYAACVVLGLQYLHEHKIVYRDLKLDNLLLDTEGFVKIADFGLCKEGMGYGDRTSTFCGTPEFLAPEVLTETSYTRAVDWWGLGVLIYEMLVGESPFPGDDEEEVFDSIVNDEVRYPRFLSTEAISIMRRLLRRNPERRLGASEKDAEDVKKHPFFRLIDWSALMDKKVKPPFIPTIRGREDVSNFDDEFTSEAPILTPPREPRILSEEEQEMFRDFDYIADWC

Chain of Casein kinase I isoform delta (Homo sapiens) (P48730 whole entry, looked up, canonical isoform): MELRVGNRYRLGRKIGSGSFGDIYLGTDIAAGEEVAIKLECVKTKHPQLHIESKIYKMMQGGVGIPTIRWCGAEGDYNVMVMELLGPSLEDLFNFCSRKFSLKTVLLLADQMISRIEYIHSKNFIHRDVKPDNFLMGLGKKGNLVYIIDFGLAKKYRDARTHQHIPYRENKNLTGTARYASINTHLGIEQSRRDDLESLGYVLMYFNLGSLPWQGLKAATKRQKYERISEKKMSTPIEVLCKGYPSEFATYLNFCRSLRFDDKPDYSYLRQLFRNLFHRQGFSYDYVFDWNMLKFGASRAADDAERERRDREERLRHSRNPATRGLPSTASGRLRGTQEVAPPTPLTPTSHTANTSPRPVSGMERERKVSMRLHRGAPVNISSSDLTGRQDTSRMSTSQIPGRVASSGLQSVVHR

SMILES	Activity [1] [%]	Activity [2] [%]	Activity [3] [%]	Activity [4] [%]	Activity [5] [%]	Activity [6] [%]	Activity [7] [%]	Activity [8] [%]	Activity [9] [%]	Activity [10] [%]
COc1cc2nc(C)nc(N[C@H](C)c3cccc(-c4cn[nH]c4)c3)c2cc1OC	100	87	86	90	69	95	81	100	91	78
COc1cc2ncnc(N[C@H](C)c3cccc4ccccc34)c2cc1OC	95	100	83	48	91	70	70	64	71	100
